Key:
ALK2 (Q207D) = molecular target: T1, ALK2 (Q207D) (Homo sapiens, UniProt Q04771, Q207D); assay: Kinase assay (33P-ATP filter-binding), ALK2 Q207D; assay type: biochemical; details: Q207D mutant, 20 mM; read-out: Kinase Selectivity ALK2 (Q207D, 20 mM)
T1 sequence (Q04771 21-509 Q207D): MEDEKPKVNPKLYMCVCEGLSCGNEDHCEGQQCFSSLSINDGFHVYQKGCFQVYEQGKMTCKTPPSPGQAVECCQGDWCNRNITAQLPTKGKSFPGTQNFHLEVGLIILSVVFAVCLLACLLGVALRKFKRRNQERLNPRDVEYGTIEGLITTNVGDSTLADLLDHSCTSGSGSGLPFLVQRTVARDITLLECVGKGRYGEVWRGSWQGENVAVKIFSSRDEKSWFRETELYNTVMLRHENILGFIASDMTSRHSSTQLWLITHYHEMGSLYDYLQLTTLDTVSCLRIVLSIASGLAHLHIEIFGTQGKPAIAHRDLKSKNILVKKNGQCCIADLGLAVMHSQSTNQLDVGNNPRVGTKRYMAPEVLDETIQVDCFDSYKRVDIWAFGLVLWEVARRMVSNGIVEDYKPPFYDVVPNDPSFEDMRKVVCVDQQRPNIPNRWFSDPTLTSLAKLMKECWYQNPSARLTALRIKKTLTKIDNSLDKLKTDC
Summary of the method: (§1)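 Each kinase is added to substrate in buffered solution (20 mM Hepes pH 7.5, 10 mM MgCl2, 2 mM DTT, 1% DMSO), then compound is dispensed and left 20 minutes at room temperature. Radiolabelled ATP initiates a 2-hour room-temperature reaction, measured by P81 filter binding.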

ALK3/BMPR1A = ALK3/BMPR1A (Homo sapiens, UniProt P36894); assay: Kinase assay (33P-ATP filter-binding), ALK3; assay type: biochemical; details: 1 mM; read-out: Kinase Selectivity ALK3/BMPR1A (1 mM)
Chain of ALK3/BMPR1A (P36894 24-532): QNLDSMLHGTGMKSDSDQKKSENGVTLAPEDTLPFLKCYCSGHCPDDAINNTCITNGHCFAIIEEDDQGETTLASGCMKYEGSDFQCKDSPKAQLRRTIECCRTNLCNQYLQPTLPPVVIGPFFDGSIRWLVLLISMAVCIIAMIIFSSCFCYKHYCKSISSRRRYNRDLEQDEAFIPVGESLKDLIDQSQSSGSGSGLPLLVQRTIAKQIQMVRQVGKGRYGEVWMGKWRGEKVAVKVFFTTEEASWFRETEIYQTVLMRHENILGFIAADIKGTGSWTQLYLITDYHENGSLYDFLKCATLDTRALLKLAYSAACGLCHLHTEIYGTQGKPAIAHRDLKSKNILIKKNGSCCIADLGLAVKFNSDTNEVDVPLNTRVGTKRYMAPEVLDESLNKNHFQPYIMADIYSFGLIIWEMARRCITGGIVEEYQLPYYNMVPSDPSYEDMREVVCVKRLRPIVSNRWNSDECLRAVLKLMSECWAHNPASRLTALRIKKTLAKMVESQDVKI
Summary of the method: as §1

ALK4 = molecular target: T2, ALK4 (Homo sapiens, UniProt P36896); assay: Kinase assay (33P-ATP filter-binding), ALK4; assay type: biochemical; details: read-out: Kinase Selectivity ALK4
T2 sequence (P36896 24-505): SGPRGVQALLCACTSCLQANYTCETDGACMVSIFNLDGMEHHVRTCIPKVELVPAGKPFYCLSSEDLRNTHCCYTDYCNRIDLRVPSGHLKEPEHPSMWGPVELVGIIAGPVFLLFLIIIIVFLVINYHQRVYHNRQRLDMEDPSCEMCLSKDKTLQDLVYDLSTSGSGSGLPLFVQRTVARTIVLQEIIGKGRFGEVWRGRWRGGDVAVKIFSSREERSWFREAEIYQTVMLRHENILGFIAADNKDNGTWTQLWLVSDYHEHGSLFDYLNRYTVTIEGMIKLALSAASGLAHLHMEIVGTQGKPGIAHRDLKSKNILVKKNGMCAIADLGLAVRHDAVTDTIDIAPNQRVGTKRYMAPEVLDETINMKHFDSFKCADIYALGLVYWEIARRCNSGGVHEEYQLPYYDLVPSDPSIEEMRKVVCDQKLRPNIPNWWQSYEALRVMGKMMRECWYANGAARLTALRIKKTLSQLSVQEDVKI
Description: (§2) The kinase assays were carried out briefly as follows. Substrate was prepared in Base Reaction Buffer (20 mM Hepes (pH 7.5), 10 mM MgCl2, 1 mM EGTA, 0.02% Brij35, 0.02 mg/ml BSA, 0.1 mM Na3VO4, 2 mM DTT, 1% DMSO). The indicated kinases was delivered into the substrate solution and allowed to gently mix. Next, the specific compound was delivered in DMSO into the kinase mixture by Acoustic technology (Echo550; nanoliter range), and allowed to incubate for 20 minutes at room temperature. Next, ^33P-ATP was delivered into the reaction mixture to initiate the reaction and allowed to incubate at room temperature. After 2 hours, the reactions were spotted onto P81 ion exchange paper and the kinase activity is detected by the filter-binding method.

BMPR2 = molecular target: T3, BMPR2 (Homo sapiens, UniProt Q13873); assay: Kinase assay (33P-ATP filter-binding), BMPR2; assay type: biochemical; details: read-out: Kinase Selectivity BMPR2
T3 sequence (Q13873 27-1038): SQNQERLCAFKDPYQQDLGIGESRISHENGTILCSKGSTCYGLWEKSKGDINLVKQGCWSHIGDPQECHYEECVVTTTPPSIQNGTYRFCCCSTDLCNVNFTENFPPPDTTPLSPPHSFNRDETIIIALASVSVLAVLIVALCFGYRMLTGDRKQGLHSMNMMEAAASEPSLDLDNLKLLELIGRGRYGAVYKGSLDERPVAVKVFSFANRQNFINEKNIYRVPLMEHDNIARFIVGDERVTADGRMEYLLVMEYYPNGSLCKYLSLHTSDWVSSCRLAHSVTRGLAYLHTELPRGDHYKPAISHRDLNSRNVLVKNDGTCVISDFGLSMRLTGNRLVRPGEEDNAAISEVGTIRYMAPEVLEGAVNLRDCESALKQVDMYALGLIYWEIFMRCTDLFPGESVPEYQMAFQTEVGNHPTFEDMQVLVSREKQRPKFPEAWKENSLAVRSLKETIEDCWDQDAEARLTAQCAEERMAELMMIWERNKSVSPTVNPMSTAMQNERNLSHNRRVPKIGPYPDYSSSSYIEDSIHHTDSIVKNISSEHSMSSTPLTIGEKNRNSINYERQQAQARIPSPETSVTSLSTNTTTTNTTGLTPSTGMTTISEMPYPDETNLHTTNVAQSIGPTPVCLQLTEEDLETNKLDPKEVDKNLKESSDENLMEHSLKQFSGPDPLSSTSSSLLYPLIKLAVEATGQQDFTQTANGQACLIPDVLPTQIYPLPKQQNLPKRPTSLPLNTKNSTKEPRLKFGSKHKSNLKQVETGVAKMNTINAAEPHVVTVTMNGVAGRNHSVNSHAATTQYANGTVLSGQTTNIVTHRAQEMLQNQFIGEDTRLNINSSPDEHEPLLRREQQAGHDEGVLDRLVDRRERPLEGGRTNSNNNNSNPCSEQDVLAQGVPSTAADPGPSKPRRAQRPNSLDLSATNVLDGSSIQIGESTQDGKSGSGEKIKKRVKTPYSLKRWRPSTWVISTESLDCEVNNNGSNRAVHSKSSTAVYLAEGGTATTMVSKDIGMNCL
Description: as §2

TGFbR2 = TGFbR2 (Homo sapiens, UniProt P37173); assay: Kinase assay (33P-ATP filter-binding), TGFbR2; assay type: biochemical; details: read-out: Kinase Selectivity TGFbR2
Chain of TGFbR2 (P37173 23-567, species assumed): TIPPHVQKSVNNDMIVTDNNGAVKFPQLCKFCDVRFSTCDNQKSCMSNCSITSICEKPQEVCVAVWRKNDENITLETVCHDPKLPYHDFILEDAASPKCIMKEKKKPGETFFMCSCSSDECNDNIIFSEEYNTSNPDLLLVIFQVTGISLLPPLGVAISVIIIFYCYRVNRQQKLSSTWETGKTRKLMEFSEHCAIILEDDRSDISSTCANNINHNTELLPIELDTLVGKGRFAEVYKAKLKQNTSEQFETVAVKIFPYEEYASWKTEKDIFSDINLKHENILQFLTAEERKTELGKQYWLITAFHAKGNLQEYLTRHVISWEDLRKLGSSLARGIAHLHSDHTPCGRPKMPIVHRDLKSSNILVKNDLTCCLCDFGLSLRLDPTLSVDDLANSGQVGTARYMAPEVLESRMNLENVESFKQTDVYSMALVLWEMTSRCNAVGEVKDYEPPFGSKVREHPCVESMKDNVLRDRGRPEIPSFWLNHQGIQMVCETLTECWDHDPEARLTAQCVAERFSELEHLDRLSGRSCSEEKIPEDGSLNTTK
Description: as §2

KDR = KDR (Homo sapiens, UniProt P35968); assay: Kinase assay (33P-ATP filter-binding), KDR; assay type: biochemical; details: read-out: Kinase Selectivity KDR
Chain of KDR (P35968 20-1356, species assumed): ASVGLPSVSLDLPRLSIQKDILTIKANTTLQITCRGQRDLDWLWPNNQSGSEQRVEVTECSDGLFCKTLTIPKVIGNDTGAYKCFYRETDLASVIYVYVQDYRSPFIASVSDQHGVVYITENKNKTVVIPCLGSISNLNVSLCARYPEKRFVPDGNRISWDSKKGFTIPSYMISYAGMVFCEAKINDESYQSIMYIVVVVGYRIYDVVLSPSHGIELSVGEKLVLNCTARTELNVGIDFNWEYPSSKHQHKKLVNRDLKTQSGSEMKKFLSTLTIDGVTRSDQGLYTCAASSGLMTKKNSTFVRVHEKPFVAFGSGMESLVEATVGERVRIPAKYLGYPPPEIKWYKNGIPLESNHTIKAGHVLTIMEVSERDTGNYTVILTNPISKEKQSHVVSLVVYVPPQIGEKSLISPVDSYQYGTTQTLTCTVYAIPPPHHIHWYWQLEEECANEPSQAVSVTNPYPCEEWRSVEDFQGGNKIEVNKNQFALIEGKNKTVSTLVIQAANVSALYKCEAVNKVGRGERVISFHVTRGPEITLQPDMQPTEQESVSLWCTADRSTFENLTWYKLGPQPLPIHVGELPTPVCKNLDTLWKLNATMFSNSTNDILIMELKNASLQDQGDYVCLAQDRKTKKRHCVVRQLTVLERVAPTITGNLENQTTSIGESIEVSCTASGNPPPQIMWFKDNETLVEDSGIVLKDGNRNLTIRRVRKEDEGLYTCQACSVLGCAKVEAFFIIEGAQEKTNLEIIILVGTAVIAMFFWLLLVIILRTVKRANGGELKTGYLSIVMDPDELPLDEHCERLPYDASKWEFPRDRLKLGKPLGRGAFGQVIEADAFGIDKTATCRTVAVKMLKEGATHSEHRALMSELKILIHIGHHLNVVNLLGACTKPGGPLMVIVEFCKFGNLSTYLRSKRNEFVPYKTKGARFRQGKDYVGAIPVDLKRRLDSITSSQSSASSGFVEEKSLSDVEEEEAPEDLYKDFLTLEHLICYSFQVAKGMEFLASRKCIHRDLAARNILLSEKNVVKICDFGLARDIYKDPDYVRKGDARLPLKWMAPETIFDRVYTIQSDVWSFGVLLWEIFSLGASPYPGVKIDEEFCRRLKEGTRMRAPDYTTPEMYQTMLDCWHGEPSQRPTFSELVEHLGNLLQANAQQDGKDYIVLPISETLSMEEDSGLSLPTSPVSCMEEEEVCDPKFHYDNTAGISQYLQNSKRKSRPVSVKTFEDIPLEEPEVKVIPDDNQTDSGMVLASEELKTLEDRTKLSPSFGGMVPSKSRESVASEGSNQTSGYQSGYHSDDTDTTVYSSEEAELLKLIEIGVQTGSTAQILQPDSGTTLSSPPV
Description: as §2

[1] = Intrinsic clearance, human; assay type: in vitro ADME; details: human
[2] = Intrinsic clearance, mouse; assay type: in vitro ADME; details: mouse
Protein binding, human = assay type: in vitro ADME
Protein binding, mouse = assay type: in vitro ADME
[3] = CL-Hep, value in parentheses, read-out: Intrinsic Clearance Human (CL-Hep)
[4] = read-out: Intrinsic Clearance Human
[5] = CL-Hep, value in parentheses, read-out: Intrinsic Clearance Mouse (CL-Hep)
[6] = read-out: Intrinsic Clearance Mouse

| Compound | IC50 (ALK2 (Q207D)) [nM] | IC50 (ALK3/BMPR1A) [nM] | IC50 (ALK4) [nM] | IC50 (BMPR2) [nM] | IC50 (TGFbR2) [nM] | IC50 (KDR) [nM] | CLint scaled [1, 3] [mL/min/kg] | CLint scaled [1, 4] [mL/min/kg] | CLint scaled [2, 5] [mL/min/kg] | CLint scaled [2, 6] [mL/min/kg] | Protein Binding (% Free) Human (Protein binding, human) [% Free] | Protein Binding (% Free) Mouse (Protein binding, mouse) [% Free] |
| --- | --- | --- | --- | --- | --- | --- | --- | --- | --- | --- | --- | --- |
| O=C1CNC(=O)C(c2ccc(-c3ccn4c(-c5cccc6ncccc56)cnc4c3)cc2)N1 (centres unmarked) [Compound 36] | < 5.1 | 295 | 390 | > 100000 | 498 | 36900 | – | – | – | – | – | – |
| Cc1cc(-c2cnc3cc(-c4ccc(C5COCC(C)N5)cc4)ccn23)c2cc(F)cc(F)c2n1 (centres unmarked) [Compound 23] | < 5.1 | < 5.1 | 164 | > 100000 | 560 | 47400 | 17.5 | 139 | 42.9 | 82.2 | 1.11 | 2.85 |
| c1cnc2nccc(-c3cnc4cc(-c5ccc(C6CNCCN6)cc5)ccn34)c2c1 (centres unmarked) [Compound 32] | < 5.1 | < 5.1 | 192 | 54400 | 4590 | 9350 | < 11 | < 23.1 | < 31.9 | < 49.5 | 42.8 | 33.9 |
| NS(=O)(=O)c1ccc(-c2cnc3cc(-c4ccc(C5CNCCN5)cc4)ccn23)c2ccccc12 (centres unmarked) [Compound 37] | 5.8 | 20300 | 386 | > 100000 | 2680 | 31400 | < 11 | < 23.1 | < 31.9 | < 49.5 | 11.7 | – |
| c1cc(-c2cnc3cc(-c4ccc(C5CNCCN5)cc4)ccn23)c2cccnc2c1 (centres unmarked) [Compound 33] | < 5.1 | 82.7 | 775 | > 100000 | 620 | 39300 | < 11 | < 23.1 | < 31.9 | < 49.5 | 11 | 8.4 |
| Cc1cc(-c2cnc3cc(-c4ccc(C5COC6(CCNCC6)CN5)cc4)ccn23)c2cc(F)cc(F)c2n1 (centres unmarked) [Compound 16] | 6.3 | < 5.1 | 775 | > 100000 | 620 | 39300 | < 10.7 | < 23.1 | < 32.9 | < 49.5 | 5.61 | 4.7 |
| Cc1cc(-c2cnc3cc(-c4ccc(C5COC6(CCNC6)CN5)cc4)ccn23)c2cc(F)cc(F)c2n1 (centres unmarked) [Compound 27] | 219 | 13.5 | 2030 | > 100000 | 1870 | > 100000 | < 10.7 | < 23.1 | < 32.9 | < 49.5 | 4.97 | 3.9 |
